Measurements taken from patent US8901315B2, “Thienopyrazole derivative having PDE7 inhibitory activity” (Daiichi Sankyo Company, Limited, priority 2004, dated 2014).

Tests used:
[1] = target: PDE 7 (phosphodiesterase VII) (Homo sapiens (Human), UniProt Q13946); experiment: PDE 7 inhibiting effect (3H-cAMP hydrolysis, PDE 7 active fraction from MOLT-4 cells); type: biochemical; settings: PDE 7 fraction from MOLT-4 cells, 0.064 μM cAMP, 10 μM rolipram, 2 hours at 25° C.; read-out: PDE7 IC50
Method in brief: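 ³H-cAMP hydrolysis by a PDE7-active fraction was followed, and the reaction was worked up with a Sephadex-QAE suspension (10 mM HEPES-Na, pH 7.0). Enzyme came from MOLT-4 cell soluble extract (pH 7.5 Tris buffer, 100,000×G supernatant), fractionated by HiTrap Q anion exchange with a 0–0.8 M NaCl gradient.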

[2] = target: PDE 4 (phosphodiesterase IV); experiment: PDE 4 inhibiting effect (3H-cAMP hydrolysis, PDE 4 active fraction from Balb/c mouse liver); type: biochemical; settings: PDE 4 fraction from Balb/c mice liver, 0.064 μM cAMP, 2 hours at 25° C.; read-out: PDE4 IC50
Method in brief: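 Activity was measured as 3H-cAMP hydrolysis, with Sephadex-QAE added after the reaction. The enzyme was a PDE4-active fraction from 12-week male Balb/c mouse liver, taken from the ultracentrifuged soluble fraction by DEAE sepharose chromatography (0.05-1 M sodium acetate gradient, pH 6.5 buffer).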

Sequence of PDE 7 (phosphodiesterase VII) (Q13946 whole entry): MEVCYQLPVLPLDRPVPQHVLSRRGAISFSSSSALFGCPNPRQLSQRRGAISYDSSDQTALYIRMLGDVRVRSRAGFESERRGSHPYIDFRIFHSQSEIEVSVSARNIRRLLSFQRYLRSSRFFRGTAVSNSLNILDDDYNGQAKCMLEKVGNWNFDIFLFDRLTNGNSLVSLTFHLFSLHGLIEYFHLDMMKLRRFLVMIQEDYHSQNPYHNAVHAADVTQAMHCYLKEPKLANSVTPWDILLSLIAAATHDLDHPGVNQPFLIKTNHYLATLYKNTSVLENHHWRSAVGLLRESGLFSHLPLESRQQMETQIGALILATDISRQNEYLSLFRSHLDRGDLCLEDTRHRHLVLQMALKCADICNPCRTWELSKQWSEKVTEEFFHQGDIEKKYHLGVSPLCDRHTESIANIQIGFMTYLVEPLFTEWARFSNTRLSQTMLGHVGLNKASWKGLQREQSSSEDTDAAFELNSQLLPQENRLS

Structure (SMILES) | IC50 [1] [nM] | IC50 [2] [nM]
Cc1nn(C2CCCCC2)c2sc(C(=O)Nc3ccc(C(=O)NCCO)nc3)cc12 [Example 379, 1-Cyclohexyl-N-(6-{[(2-hydroxyethyl)amino]carbonyl}-3-pyridinyl)-3-methyl-1H-thieno[2,3-c]pyrazole-5-carboxamide] | 13 | 1200
Cc1nn(C2CCCCC2)c2sc(C(=O)Nc3ccc(C(=O)N4CCN(C)CC4)nc3)cc12 [Example 380, 1-Cyclohexyl-3-methyl N-{6-[(4-methyl-1-piperazinyl)carbonyl]-3-pyridinyl}-1H-thieno[2,3-c]pyrazole-5-carboxamide] | 56 | 1500
Cc1nn(C2CCCCC2)c2sc(C(=O)Nc3ccc(C(=O)NCCN(C)C)nc3)cc12 [Example 381] | 22 | 670
Cc1nn(C2CCCCC2)c2sc(C(=O)Nc3ccc(C(=O)N[C@H]4CC[C@H](O)CC4)nc3)cc12 [Example 382, 1-Cyclohexyl-N-(6-{[(trans-4-hydroxycyclohexyl)amino]carbonyl}-3-pyridinyl)-3-methyl-1H-thieno[2,3-c]pyrazole-5-carboxamide] | 25 | 620
Cc1nn(C2CCCCC2)c2sc(C(=O)Nc3ccc(C(=O)N4CCCN(C)CC4)nc3)cc12 [Example 383] | 74 | 2400
CC(=O)N1CCN([C@H]2CC[C@H](NC(=O)c3cc4c(C)nn(C5CCOCC5)c4s3)CC2)CC1 [Example 395, N-[trans-4-(4-Acetyl-1-piperazinyl)cyclohexyl]-3-methyl-1-tetrahydro-2H-pyran-4-yl-1H-thieno[2,3-c]pyrazole-5-carboxamide] | 19 | 1400
Cc1nn(C2CCOCC2)c2sc(C(=O)N[C@H]3CC[C@H](N4CCN(S(C)(=O)=O)CC4)CC3)cc12 [Example 396, 3-Methyl-N-{trans-4-[4-(methylsulfonyl)-1-piperazinyl]cyclohexyl}-1-tetrahydro-2H-pyran-4-yl-1H-thieno[2,3-c]pyrazole-5-carboxamide] | 22 | 900
Cc1nn(C2CCOCC2)c2sc(C(=O)N[C@H]3CC[C@H](N4C[C@@H](C)O[C@@H](C)C4)CC3)cc12 [Example 402, N-[trans-4-(cis-2,6-Dimethylmorpholinyl)cyclohexyl]-3-methyl-1-tetrahydro-2H-pyran-4-yl-1H-thieno[2,3-c]pyrazole-5-carboxamide] | 19 | 7300
Cc1nn(C2CCCCC2)c2sc(C(=O)Nc3ccc(CO)nc3)cc12 [Example 404, 1-Cyclohexyl-N-[6-(hydroxymethyl)-3-pyridinyl]-3-methyl-1H-thieno[2,3-c]pyrazole-5-carboxamide] | 32 | 3500
Cc1nn(C2CCCCC2)c2sc(C(=O)Nc3ccc(CN4CCC(O)CC4)nc3)cc12 [Example 413, 1-Cyclohexyl-N-{6-[(4-hydroxy-1-piperidinyl)methyl]-3-pyridinyl}-3-methyl-1H-thieno[2,3-c]pyrazole-5-carboxamide] | 30 | 2500
CC(=O)N1CCN(Cc2ccc(NC(=O)c3cc4c(C)nn(C5CCCCC5)c4s3)cn2)CC1 [Example 414, N-{6-[(4-Acetyl-1-piperazinyl)methyl]-3-pyridinyl}-1-cyclohexyl-3-methyl-1H-thieno[2,3-c]pyrazole-5-carboxamide] | 35 | 2800
Cc1nn(C2CCOCC2)c2sc(C(=O)N[C@H]3CC[C@H](N4CCN(C)CC4=O)CC3)cc12 [Example 415, 3-Methyl-N-[trans-4-(4-methyl-2-oxo-piperazinyl)cyclohexyl]-1-tetrahydro-2H-pyran-4-yl-1H-thieno[2,3-c]pyrazole-5-carboxamide] | 93 | 5100
Cc1nn(C2CCCCC2)c2sc(C(=O)N[C@H]3CC[C@H](N4CCN(C)CC4=O)CC3)cc12 [Example 416, 1-Cyclohexyl-3-methyl-N-[trans-4-(4-methyl-2-oxo-1-piperazinyl)-cyclohexyl]-1H-thieno[2,3-c]pyrazole-5-carboxamide] | 17 | 1300
